From patent US11820766B2, “Monoacylglycerol lipase modulators” (Janssen Pharmaceutica NV, priority 2018, dated 2023) come the findings set out here.

SMILES strings stand for the structures.

One test has as its target T1, human MGL from HeLa cells (Homo sapiens, UniProt Q99685).
T1 construct: combining endogenously expressed MGL from HeLa cells with test compounds; endogenous in cells; host or cells: HeLa cells / cell homogenates
T1 sequence (Q99685 1-303): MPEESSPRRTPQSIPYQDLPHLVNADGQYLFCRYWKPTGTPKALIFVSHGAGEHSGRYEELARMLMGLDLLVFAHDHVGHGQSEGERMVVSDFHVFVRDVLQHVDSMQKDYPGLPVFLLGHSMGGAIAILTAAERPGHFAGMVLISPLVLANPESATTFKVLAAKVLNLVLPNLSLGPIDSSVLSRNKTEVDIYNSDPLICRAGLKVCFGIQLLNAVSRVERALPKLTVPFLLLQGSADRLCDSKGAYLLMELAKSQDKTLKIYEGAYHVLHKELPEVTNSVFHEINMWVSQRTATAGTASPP
As to the kind of experiment: In vitro MGL activity assay: [glycerol-1,3-3H]-oleyl glycerol cleavage by MGL from HeLa cells. The test is classed as biochemical. Particulars: 300 nM [Glycerol-1,3-3H]-oleyl glycerol, one hour. From the text: MGL is the predominant hydrolase in HeLa cells/cell homogenates.
With `C[C@H]1c2nn(C)c(-c3cc(F)c(F)c(F)c3)c2CCN1C(=O)c1cnn2c1CCC2` [Example 551, 5,6-Dihydro-4H-pyrrolo[1,2-b]pyrazol-3-yl-[(7S)-2,7-dimethyl-3-(3,4,5-trifluorophenyl)-5,7-dihydro-4H-pyrazolo[3,4-c]pyridin-6-yl]methanone], the IC50 – broadly, the concentration that gives 50% inhibition – was 122 nM.
Consider `C[C@H]1c2nn(C)c(-c3cc(F)c(F)c(F)c3)c2CCN1C(=O)c1cnc2ccncc2c1` [Example 488, [(7S)-2,7-Dimethyl-3-(3,4,5-trifluorophenyl)-5,7-dihydro-4H-pyrazolo[3,4-c]pyridin-6-yl]-(1,6-naphthyridin-3-yl)methanone], for which the IC50 is 227 nM.
Regarding `C[C@H]1c2nn(C)c(-c3cccc4ccoc34)c2CCN1C(=O)c1ccc2ncccc2c1` [Example 534, [(7S)-3-(Benzofuran-7-yl)-2,7-dimethyl-5,7-dihydro-4H-pyrazolo[3,4-c]pyridin-6-yl]-(6-quinolyl)methanone], the IC50 was determined as 25.1 nM.
In the case of `C[C@H]1c2nn(C)c(-c3cc(F)c(F)c(F)c3)c2CCN1C(=O)c1cnc2c(c1)OCCO2` [Example 570, 2,3-Dihydro-[1,4]dioxino[2,3-b]pyridin-7-yl-[(7S)-2,7-dimethyl-3-(3,4,5-trifluorophenyl)-5,7-dihydro-4H-pyrazolo[3,4-c]pyridin-6-yl]methanone], the half-maximal inhibitory concentration (IC50) is 136 nM.
The same measure, in the same setting: to `Cc1nc2ccc(C3CC3)cn2c1C(=O)N1CCc2c(nn(C)c2-c2cc(F)c(F)c(F)c2)[C@@H]1C` [Example 618] belongs 18.2 nM.
Regarding `C[C@H]1c2nn(C)c(-c3cc(F)c(F)c(F)c3)c2CCN1C(=O)c1cncc2ncccc12` [Example 489], it took 30 nM to reach half-maximal inhibition (IC50).
Take `Cc1nccn2nc(C3CC3)c(C(=O)N3CCc4c(nn(C)c4-c4cc(F)c(F)c(F)c4)[C@@H]3C)c12` [Example 447, (2-Cyclopropyl-4-methyl-pyrazolo[1,5-a]pyrazin-3-yl)-[(7S)-2,7-dimethyl-3-(3,4,5-trifluorophenyl)-5,7-dihydro-4H-pyrazolo[3,4-c]pyridin-6-yl]methanone]: the 50% inhibitory concentration (IC50) worked out at 392 nM.
`C[C@H]1c2nn(C)c(-c3cc(F)c(F)c(F)c3)c2CCN1C(=O)c1nn(C)c2ncccc12` [Example 427, [(7S)-2,7-Dimethyl-3-(3,4,5-trifluorophenyl)-5,7-dihydro-4H-pyrazolo[3,4-c]pyridin-6-yl]-(1-methylpyrazolo[3,4-b]pyridin-3-yl)methanone] registered a 50% inhibitory concentration (IC50) of 28.6 nM. Compared with the last molecule, the IC50 is about 14-fold lower.
In turn, `C[C@H]1c2nn(C)c(-c3cc(F)c(F)c(F)c3)c2CCN1C(=O)c1c[nH]c2ncc(F)cc12` [Example 374, [(7S)-2,7-Dimethyl-3-(3,4,5-trifluorophenyl)-5,7-dihydro-4H-pyrazolo[3,4-c]pyridin-6-yl]-(5-fluoro-1H-pyrrolo[2,3-b]pyridin-3-yl)methanone] came in with a concentration for half-maximal inhibition (IC50) of 21 nM.
Still for that read-out and setting: to `C[C@H]1c2nn(C)c(-c3cc(F)c(F)c(F)c3)c2CCN1C(=O)c1n[nH]c2cnccc12` [Example 430, [(7S)-2,7-Dimethyl-3-(3,4,5-trifluorophenyl)-5,7-dihydro-4H-pyrazolo[3,4-c]pyridin-6-yl]-(1H-pyrazolo[3,4-c]pyridin-3-yl)methanone] belongs 56.1 nM; to `Cc1cnc2c(C(=O)N3CCc4c(nn(C)c4-c4cc(F)c(F)c(F)c4)[C@@H]3C)cnn2c1` [Example 451, [(7S)-2,7-Dimethyl-3-(3,4,5-trifluorophenyl)-5,7-dihydro-4H-pyrazolo[3,4-c]pyridin-6-yl]-(6-methylpyrazolo[1,5-a]pyrimidin-3-yl)methanone], 199 nM.
`Cc1nn2ccnc(C)c2c1C(=O)N1CCc2c(nn(C)c2-c2cc(F)c(F)c(F)c2)[C@@H]1C` [Example 446, (2,4-Dimethylpyrazolo[1,5-a]pyrazin-3-yl)-[(7S)-2,7-dimethyl-3-(3,4,5-trifluorophenyl)-5,7-dihydro-4H-pyrazolo[3,4-c]pyridin-6-yl] methanone] had an IC50 of 34.1 nM.
On the same count and under the same terms, to `C[C@H]1c2nn(C)c(-c3cc(F)c(F)c(F)c3)c2CCN1C(=O)c1c(F)cnc2[nH]ccc12` [Example 369, [(7S)-2,7-Dimethyl-3-(3,4,5-trifluorophenyl)-5,7-dihydro-4H-pyrazolo[3,4-c]pyridin-6-yl]-(5-fluoro-1H-pyrrolo[2,3-b]pyridin-4-yl)methanone] belongs 1.88 nM.
For the molecule `Cc1ccnc2c(C(=O)N3CCc4c(nn(C)c4-c4cc(F)c(F)c(F)c4)[C@@H]3C)cnn12` [Example 450, [(7S)-2,7-Dimethyl-3-(3,4,5-trifluorophenyl)-5,7-dihydro-4H-pyrazolo[3,4-c]pyridin-6-yl]-(7-methylpyrazolo[1,5-a]pyrimidin-3-yl) methanone], the IC50 turned out to be 172 nM.
Same read-out and setting: to `COc1cccc2c(C(=O)N3CCc4c(nn(C)c4-c4cc(F)c(F)c(F)c4)[C@@H]3C)cnn12` [Example 387, [(7S)-2,7-Dimethyl-3-(3,4,5-trifluorophenyl)-5,7-dihydro-4H-pyrazolo[3,4-c]pyridin-6-yl]-(7-methoxypyrazolo[1,5-a]pyridin-3-yl)methanone] belongs 26.4 nM.
Regarding `Cc1nn2ccccc2c1C(=O)N1CCc2c(nn(C)c2-c2cc(F)c(F)c(F)c2)[C@@H]1C` [Example 382, [(7S)-2,7-Dimethyl-3-(3,4,5-trifluorophenyl)-5,7-dihydro-4H-pyrazolo[3,4-c]pyridin-6-yl]-(2-methylpyrazolo[1,5-a]pyridin-3-yl)methanone], the IC50 was determined as 4.26 nM.
For `C[C@H]1c2nn(C)c(-c3cc(F)c(F)c(F)c3)c2CCN1C(=O)c1cccc2oc(=O)[nH]c12` [Example 584, 4-[(7S)-2,7-Dimethyl-3-(3,4,5-trifluorophenyl)-5,7-dihydro-4H-pyrazolo[3,4-c]pyridine-6-carbonyl]-3H-1,3-benzoxazol-2-one], half-maximal inhibition (IC50) was put at 300 nM.

The test is the same for the next values; noted with them: 300 nM [Glycerol-1,3-3H]-oleyl glycerol, one hour incubation.
Turning to `Cc1cc(C(=O)N2CCc3c(nn(C)c3-c3cc(F)c(F)c(F)c3)[C@@H]2C)c2cccc(F)c2n1` [Example 241, (S)-(2,7-Dimethyl-3-(3,4,5-trifluorophenyl)-2,4,5,7-tetrahydro-6H-pyrazolo[3,4-c]pyridin-6-yl)(8-fluoro-2-methylquinolin-4-yl)methanone], the IC50 came to 6.56 nM.
In the case of `COc1cncc(C(=O)N2CCc3c(nn(C)c3-c3cc(F)c(F)c(F)c3)[C@@H]2C)c1` [Example 203, (S)-(2,7-Dimethyl-3-(3,4,5-trifluorophenyl)-2,4,5,7-tetrahydro-6H-pyrazolo[3,4-c]pyridin-6-yl)(5-methoxypyridin-3-yl)methanone], inhibition was half-maximal at 67.5 nM (IC50).
`CC1c2nn(C)c(-c3cc4ccccc4n3C)c2CCN1C(=O)c1ccc2ncccc2c1` (centres unmarked) [Example 250, (2,7-Dimethyl-3-(1-methyl-1H-indol-2-yl)-2,4,5,7-tetrahydro-6H-pyrazolo[3,4-c]pyridin-6-yl)(quinolin-6-yl)methanone] had an IC50 of 206 nM.
Same read-out and setting: to `Cn1nc2c(c1-c1ccccc1)CCN(C(=O)c1cccc(O)c1Cl)C2` [Example 12, (2-Chloro-3-hydroxyphenyl)(2-methyl-3-phenyl-2,4,5,7-tetrahydro-6H-pyrazolo[3,4-c]pyridin-6-yl)methanone] belongs 3420 nM; to `C[C@H]1c2nn(C)c(-c3cccc(Cl)c3)c2CCN1C(=O)c1ccc2cc[nH]c2n1` [Example 130, (S)-(3-(3-Chlorophenyl)-2,7-dimethyl-2,4,5,7-tetrahydro-6H-pyrazolo[3,4-c]pyridin-6-yl)(1H-pyrrolo[2,3-b]pyridin-6-yl)methanone], 274 nM.
On the same count and under the same terms, to `C[C@H]1c2nn(C)c(-c3cc(F)c(F)c(F)c3)c2CCN1C(=O)c1ccc(F)c(-n2cnnc2)c1` [Example 291, [(7S)-2,7-Dimethyl-3-(3,4,5-trifluorophenyl)-5,7-dihydro-4H-pyrazolo[3,4-c]pyridin-6-yl]-[4-fluoro-3-(1,2,4-triazol-4-yl)phenyl]methanone] belongs 1400 nM; to `Cn1nc2c(c1-c1ccccc1)CCN(C(=O)c1ccc3ocnc3c1)C2` [Example 58, Benzo[d]oxazol-5-yl(2-methyl-3-phenyl-2,4,5,7-tetrahydro-6H-pyrazolo[3,4-c]pyridin-6-yl)methanone], 4180 nM.
The same measure, in the same setting: to `C[C@H]1c2nn(C)c(-c3cc(F)cc(F)c3)c2CCN1C(=O)c1ccc2ncc(C(F)(F)F)cc2c1` [Example 165, (S)-(3-(3,5-Difluorophenyl)-2,7-dimethyl-2,4,5,7-tetrahydro-6H-pyrazolo[3,4-c]pyridin-6-yl)(3-(trifluoromethyl)quinolin-6-yl)methanone] belongs 103 nM.
Turning to `COc1cccc(C(F)(F)F)c1C(=O)N1CCc2c(nn(C)c2-c2ccccc2)C1` [Example 5, (2-Methoxy-6-(trifluoromethyl)phenyl)(2-methyl-3-phenyl-2,4,5,7-tetrahydro-6H-pyrazolo[3,4-c]pyridin-6-yl)methanone], the IC50 was above 10000 nM.
Same read-out and setting: to `COc1ccc(C(=O)N2CCc3c(nn(C)c3-c3cc(F)c(F)c(F)c3)[C@@H]2C)c(C)n1` [Example 306, [(7S)-2,7-Dimethyl-3-(3,4,5-trifluorophenyl)-5,7-dihydro-4H-pyrazolo[3,4-c]pyridin-6-yl]-(6-methoxy-2-methyl-3-pyridyl)methanone] belongs 189 nM; to `C[C@H]1c2nn(C)c(-c3cc(F)cc(C(F)(F)F)c3)c2CCN1C(=O)c1ccc2nccnc2c1` [Example 184, (S)-(3-(3-Fluoro-5-(trifluoromethyl)phenyl)-2,7-dimethyl-2,4,5,7-tetrahydro-6H-pyrazolo[3,4-c]pyridin-6-yl)(quinoxalin-6-yl)methanone], 136 nM; to `CC1c2nn(C)c(-c3cc(F)cc(F)c3)c2CCN1C(=O)c1cc2ccccc2cn1` (centres unmarked) [Example 160, (3-(3,5-Difluorophenyl)-2,7-dimethyl-2,4,5,7-tetrahydro-6H-pyrazolo[3,4-c]pyridin-6-yl)(isoquinolin-3-yl)methanone], 260 nM.
